Consider nine compounds from patent publication EP0138995B1, “REGULATION OF ENZYMES WHICH UTILIZE TETRAHYDROBIOPTERIN OR TETRAHYDROFOLATE COFACTORS WITH 6, 6-DISUBSTITUTED-TETRAHYDROPTERIDINES” (South Alabama Medical Science Foundation, priority 1983, dated 1984).

Like-named read-outs stand apart in the source and are kept apart here.

Data set [1] is described as follows: Preliminary in vivo testing: brain concentration after intraperitoneal injection. As to conditions: mice, intraperitoneally, 0.1 µmole/g body weight. Here is the method: Preliminary in vivo testing of 6,6-disubstituted pteridines has been conducted. 6,6-Dimethyltetrahydropterin was injected intraperitoneally into mice at a dose rate of 0.1 µmole/g body weight. Maximum brain concentration was reached about one hour after injection and was more than 30 times higher than the maximum level reached by tetrahydrobiopterin injected in a similar manner.

The target of data set [2] is T1, Rat Liver Phenylalanine Hydroxylase (Rattus norvegicus, UniProt P04176).
T1 construct: Cofactor for Rat Liver Phenylalanine Hydroxylase; from tissue; host or cells: rat liver
T1 sequence (P04176 1-453): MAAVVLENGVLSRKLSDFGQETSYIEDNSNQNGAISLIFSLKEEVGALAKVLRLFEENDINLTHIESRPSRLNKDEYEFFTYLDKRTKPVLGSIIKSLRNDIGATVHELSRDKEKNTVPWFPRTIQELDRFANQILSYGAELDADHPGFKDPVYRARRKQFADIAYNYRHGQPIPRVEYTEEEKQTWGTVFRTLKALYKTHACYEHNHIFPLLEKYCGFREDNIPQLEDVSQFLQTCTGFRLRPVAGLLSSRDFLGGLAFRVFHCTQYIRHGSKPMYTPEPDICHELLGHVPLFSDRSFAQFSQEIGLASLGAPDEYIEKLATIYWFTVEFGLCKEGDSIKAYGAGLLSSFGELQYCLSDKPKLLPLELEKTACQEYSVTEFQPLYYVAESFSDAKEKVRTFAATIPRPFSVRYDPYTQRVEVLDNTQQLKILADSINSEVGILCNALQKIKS
In words: Phenylalanine hydroxylase cofactor assay (cofactor consumption and tyrosine formation). The format is biochemical. The following applies: for 6,6-Me2PH4 oxidized: 2-3 minutes, no regenerating system; for 6,6-Me2PH4 tyrosine: ratio cofactor oxidized to tyrosine produced; for Relative Vmax: relative to l-BH4 = 1.0. Here is the method:
The 6,6-dimethyl substituted tetrahydropterin was tested for cofactor activity in a standard phenylalanine hydroxylase assay in which both cofactor consumption and tyrosine formation were monitored. […] An apparent Michaelis constant was determined at 1 mM phenylalanine and atmospheric oxygen with concentrations of 6,6-Me₂PH₄ ranging from 0.02-0.3 mM. The effect of a second methyl at the 6-position slightly increases the affinity for phenylalanine hydroxylase, since the apparent Km was two-thirds to three-quarters that of 6-methyl and 6,7-dimethyltetrahydropterin (Table IV). […] The maximum velocity of the reaction with 6,6-Me₂PH₄ is similar to that with the 6,7-dimethyl compound and about 6 times slower than with the natural cofactor (Table IV).

The nature of data set [3]: Rate of air oxidation of 6,6-Me2PH4. The class given is physicochemical. The following applies: 0.1 M Tris·HCl, pH 7.4 at 27°. The method, then:
Stability. The rate of air oxidation of 6,6-Me₂PH₄ was measured in 0.1 M Tris·HCl, pH 7.4 at 27°, i.e., enzyme assay conditions. […] This is similar to the constant previously determined for 6,7-Me₂PH₄.

For data set [4], the target named is T2, Sheep Liver Dihydropteridine Reductase (Ovis aries, UniProt A0ACI6QPJ5).
T2 sequence (A0ACI6QPJ5 46-254): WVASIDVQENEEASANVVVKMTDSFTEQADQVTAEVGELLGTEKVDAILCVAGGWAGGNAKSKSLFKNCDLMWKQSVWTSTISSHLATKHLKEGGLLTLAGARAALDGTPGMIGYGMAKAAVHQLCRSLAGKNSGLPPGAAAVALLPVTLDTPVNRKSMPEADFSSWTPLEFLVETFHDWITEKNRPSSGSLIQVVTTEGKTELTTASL
The data set is described as follows: Quinoid dihydropterin as substrate for dihydropteridine reductase (sheep liver). The class given is biochemical. The following applies: substrate produced by Peroxidase + H2O2. Here is the method: The quinoid was generated from 6,6-Me₂PH₄, as outlined previously. […] Peroxidase (6 units/ml final volume) was temperature equilibrated in 0.1 M Tris·HCl, pH 7.4, at 27° for 5 minutes. H₂O₂ (1.2 mM final concentration) was then added, followed by 6,6-Me₂PH₄. Conversion to q-6,6-Me₂PH₂, monitored at 340 nm, was complete within a few seconds. • (iii) Generation by phenylalanine hydroxylase: […] At 5 minutes, 6,6-Me₂PH₄ was introduced and monitored at 340 nm. Conversion of 6,6-Me₂PH₄ to quinoid dihydropterin was complete in 1-7 minutes, depending on the concentration. […] Reaction was then initiated with dihydropteridine reductase (0.01 units/ml). Rates were calculated from the enzyme dependent decrease in O.D. at 340 nm, using an extinction coefficient of 9.8 for the chemically synthesized substrate and 6.2 for the peroxidase- and phenylalanine-hydroxylase-containing reactions in which the pterin is maintained in the quinoid form. […] This Km was obtained regardless of the method of generation of the quinoid dihydropterin. The Vmax's were also the same for the dihydropteridine reductase catalyzed reduction of quinoid generated by any of the three methods (Table VI). Thus, the quinoid products of each procedure appear to behave equally.

In data set [5] the target is T1, Rat Liver Phenylalanine Hydroxylase. The following applies: data from the literature (footnotes c, d), cited from earlier work.
Data set [6] addresses T3, phenylalanine hydroxylase (Rattus norvegicus, UniProt P04176).
T3 construct: from tissue
T3 sequence (P04176 1-453): T1 sequence (P04176 1-453)
In words: Inhibition of phenylalanine hydroxylase by dihydropterins. The class given is biochemical. As to conditions: competitive inhibition; 6-MePH4 as cofactor 0.05 mM to 0.3 mM; read-out: apparent Ki. Here is the method: Measurements were made under standard assay conditions with cofactor concentration varied between 0.05 and 0.3 mM. Stock solutions of 6,6-Me₂PH₂ were in 0.1 M assay buffer.
Standard assay conditions, with 6-MePH₄ as cofactor over a range of 0.05 mM to 0.3 mM, were employed.

For data set [7] the following is noted: cited from earlier work; for concentration: read-out: blood level.
The conditions of data set [8]: cited from earlier work.
Data set [9] concerns the target T4, Beef Liver Dihydropteridine Reductase (Bos taurus, UniProt Q3T0Z7).
T4 construct: from tissue; host or cells: beef liver
T4 sequence (Q3T0Z7 1-242): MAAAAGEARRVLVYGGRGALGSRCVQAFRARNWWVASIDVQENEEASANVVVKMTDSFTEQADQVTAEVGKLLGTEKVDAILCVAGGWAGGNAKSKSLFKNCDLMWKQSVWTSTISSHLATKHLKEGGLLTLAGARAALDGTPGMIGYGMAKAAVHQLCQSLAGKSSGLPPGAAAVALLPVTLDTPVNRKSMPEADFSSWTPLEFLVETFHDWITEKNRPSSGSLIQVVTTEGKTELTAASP
In words: Quinoid dihydropterin as substrate for dihydropteridine reductase (beef liver). The format is biochemical. As to conditions: substrate produced by Peroxidase + H2O2. Here is the method:
The quinoid was generated from 6,6-Me₂PH₄, as outlined previously. […] Peroxidase (6 units/ml final volume) was temperature equilibrated in 0.1 M Tris·HCl, pH 7.4, at 27° for 5 minutes. H₂O₂ (1.2 mM final concentration) was then added, followed by 6,6-Me₂PH₄. […] At 5 minutes, 6,6-Me₂PH₄ was introduced and monitored at 340 nm. […] Reaction was then initiated with dihydropteridine reductase (0.01 units/ml). Rates were calculated from the enzyme dependent decrease in O.D. at 340 nm, using an extinction coefficient of 9.8 for the chemically synthesized substrate and 6.2 for the peroxidase- and phenylalanine-hydroxylase-containing reactions in which the pterin is maintained in the quinoid form.

The conditions of data set [10]: orally 2.5 mg/kg; cited from earlier work.
For data set [11] the following is noted: rats, 125 mg BH4/kg intravenously, cited from earlier work.
For data set [12] the following is noted: cited from earlier work. The source holds these as a separate data set.
The mark [13] stands for this setting: 0.2 mM cofactor, l-BH4: sigmoidal curve, Hill coefficient = 2, read-out: Km' for Phenylalanine.
Where [14] appears, read: 1 mM phenylalanine, atmospheric oxygen, 0.1 M Tris·HCl, pH 7.4, 27°C, read-out: Km' for Cofactor.

By half-life is commonly meant the time in which the quantity being followed falls by half. Consider `CC1(C)CNc2nc(N)[nH]c(=O)c2N1` [6,6-Me2PH4, 6,6-Dimethyltetrahydropterin], for which, in data set [1], the “maximum brain concentration, times higher than the maximum level reached by tetrahydrobiopterin” value is on record as “more than 30” and the “time after injection at which maximum brain concentration was reached” value is “about one”. Moreover, in data set [2], the “coupling of the reaction (tyrosine formed per cofactor molecule consumed)” value is “completely coupled reaction”; the “maximum velocity, times slower than with the natural cofactor” value was “about 6”; the “Relative Vmax” value is given as 0.17. In addition, in data set [2] (Initial [6,6-Me2PH4] 0.01 mM), the “Tyrosine produced” value is 4.27 nmol, the “6,6-Me2PH4 oxidized” value is 4.4 nmol and the “6,6-Me2PH4 tyrosine” value turned out to be 1.03. Also, in [2] (Initial [6,6-Me2PH4] 0.03 mM), the “Tyrosine produced” value worked out at 9.77 nmol, the “6,6-Me2PH4 oxidized” value was 9.1 nmol and the “6,6-Me2PH4 tyrosine” value is given as 0.93. Also, in data set [2] (Initial [6,6-Me2PH4] 0.06 mM), the “Tyrosine produced” value worked out at 12.57 nmol, the “6,6-Me2PH4 oxidized” value was 11.76 nmol and the “6,6-Me2PH4 tyrosine” value is recorded as 0.94. Also, in [2] (Initial [6,6-Me2PH4] 0.1 mM), the “Tyrosine produced” value is 19.25 nmol, the “6,6-Me2PH4 oxidized” value worked out at 21.18 nmol and the “6,6-Me2PH4 tyrosine” value was 1.10. In data set [3], the half-life was 23 min and the “pseudo first order rate constant of air oxidation” value came out at 0.03 min⁻¹.
In the case of `CC1N=C2C(=O)N=C(N)N=C2NC1C` (centres unmarked) [6,7-Me2PH2], the “Relative Vmax Sheep” value in data set [4] is reported as 2.
What is called Km is the substrate concentration at which the rate is half of its maximum. For the compound `CC1Nc2nc(N)[nH]c(=O)c2NC1C` (centres unmarked) [6,7-Me2PH4, 6,7-dimethyltetrahydropterin], the Km was 800 ± 100 µM in data set [5] (setting [13]) and 90 ± 10 µM in data set [5] (setting [14]). Further, in data set [5] (relative to l-BH4 = 1.0), the “Relative Vmax” value was 0.17.
For `C[C@H](O)[C@H](O)C1=Nc2c(nc(N)[nH]c2=O)NC1` [7,8-dihydrobiopterin, reference compound], in [6], the Ki was found to be 50 µM.
As for `CC1CNc2nc(N)[nH]c(=O)c2N1` (centres unmarked) [Compound 6-MePH4, 6-methyltetrahydropterin], the “share of striatal 6-MePH4 remaining in the fully reduced tetrahydro-form” value in [7] (2 hrs after injection, Kapatos and Kaufman) is reported as “over 85%”. Further, the “share of 6-MePH4 in the brain in the reduced form” value in data set [7] (Curtius et al.) is reported as 30%. Besides, in data set [7] (rats, 0.11 µmole (i.p.)/gm body weight), the “efficiency of entry into the brain, times that of an equal dose of BH4” value is given as “up to 10”. The brain level in data set [7] (rats, 0.11 µmole (i.p.)/gm, at 30 minutes, maintained until 2 hours) is recorded as 2 nmoles/g brain. Moreover, the “brain level as share of that expected assuming equal body distribution” value in data set [7] (rats, 0.11 µmole (i.p.)/gm) is recorded as 2%. For the same compound, the concentration is 40 µM in data set [7] (rats, i.p., at 30 minutes) and 10 µM in data set [7] (rats, i.p., by 2 hrs). Further, the “half life for retention by the brain” value in data set [7] (rats, i.p.) is 180 min. Also, the “half life for retention by the plasma” value in data set [7] (rats, i.p.) is 42 min. Moreover, the CSF level was 0.06 µg/mL in data set [8] (at 9.5 hours after intravenous injection of 20 mg/kg) and 0.45 µg/mL in data set [8] (three hours after intravenous injection of 20 mg/kg, 180 min). Further, in data set [8] (three hours after intravenous injection of 20 mg/kg), the “CSF level as share of that expected on the basis of equal body distribution” value is recorded as 2.2%. In addition, the “CSF 5-hydroxyindoleacetic acid” value in [8] (two hours after 8 mg/kg, from 6 before, normal = 30) was 18 ng/mL. Further, the CSF homovanillic acid in data set [8] (two hours after 8 mg/kg, from 9 before, normal 132) was 22 ng/mL. Further, the “Relative Vmax” value in [2] was determined as 0.77.
As to `CC1(c2ccccc2)CNC2=NC(N)=NC(=O)C2=N1` (centres unmarked) [Compound 6-Ph-6-MePH2, 2-Amino-4-hydroxy-6-methyl-6-phenyl-quinoid-dihydro-pteridine], in [9], the “Relative Vmax Beef” value was 0.6.
As to `CC(O)C(O)C1=Nc2c(nc(N)[nH]c2=O)NC1` (centres unmarked) [Dihydrobiopterin], the “time normal levels of phenylalanine were maintained” value in data set [10] is 24 h.
For `C[C@H](O)[C@H](O)[C@H]1CNc2nc(N)[nH]c(=O)c2N1` [l-BH4, tetrahydrobiopterin], the Km in [5] (setting [13]) is 170 µM. Also, the Michaelis constant (Km) in data set [5] (setting [14]) is 21 ± 3 µM. Also, the “maximum increase of BH4 in the striatum” value in [11] (in 15 mins) is recorded as 30%. In data set [11], the “striatal increase as share of the concentration administered assuming uniform body distribution” value is listed as 0.2% and the “time of return of striatal BH4 to normal” value was “less than 2 hours”. The “increase in CSF BH4” value in data set [12] (2 mg BH4 (i.v.)/kg/day for 3 days, 1 day after the last injection, BH4-synthesis-deficient child) is reported as “no increase”. In addition, the “CSF BH4” value in data set [12] (2.5 hours after oral treatment, in two equal doses, from 2 ng before) is 44 ng/mL. For the same compound, the “CSF BH4 as share of that expected assuming uniform body distribution and retention” value in data set [12] (2.5 hours after oral treatment) is recorded as 0.22%.
Regarding “quinoid dihydrobiopterin [dihydro-biopterin (natural isomer), reference compound]”, in [9], the Km was found to be 0.004 mM and the “Relative Vmax Beef” value is recorded as 0.5. Moreover, in data set [4], the Km was 0.004 mM and the “Relative Vmax Sheep” value was determined as 0.5.
